According to PubChem BioAssay (NCI):
Values joined by “and” are separate entries in the source; they are usually repeats but may differ in a detail not shown here. Equal values may be shown once.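 Where inhibition never reached the appropriate level, the endpoint shown equals the highest concentration tested. Otherwise, values were interpolated linearly from a five-concentration, 48-hour dose response in 96-well plates. GI50 is the concentration that inhibits growth by half. TGI denotes the concentration required for complete inhibition of growth.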

Assays:
Test in all cases: NCI-60 cell line screen, 48 h
OVCAR-4 ovarian = system: OVCAR-4 ovarian
SNB-19 CNS = system: SNB-19 CNS
KM20L2 colon = system: KM20L2 colon
UO-31 renal = system: UO-31 renal
ACHN renal = system: ACHN renal
SK-MEL-5 melanoma = system: SK-MEL-5 melanoma
DLD-1 colon = system: DLD-1 colon
HS 578T breast = system: HS 578T breast
DU-145 prostate = system: DU-145 prostate
BT-549 breast = system: BT-549 breast

SMILES	TGI (OVCAR-4 ovarian)	TGI (SNB-19 CNS)	TGI (KM20L2 colon)	TGI (UO-31 renal)	TGI (ACHN renal)	TGI (SK-MEL-5 melanoma)	TGI (DLD-1 colon)	TGI (HS 578T breast)	TGI (DU-145 prostate)	TGI (BT-549 breast)	GI50 (OVCAR-4 ovarian)	GI50 (SNB-19 CNS)	GI50 (UO-31 renal)	GI50 (ACHN renal)	GI50 (HS 578T breast)	GI50 (DU-145 prostate)	GI50 (SK-MEL-5 melanoma)	GI50 (BT-549 breast)
CNC(=O)OCc1[nH]ccc2c(C)c3nc4ccc(OC)cc4c3cc12	66.1 µM	> 25.1 µM	> 27.5 µM	> 53.9 µM	18 µM	12.8 µM	> 100 µM											
CC(=O)O[C@H]1CC[C@@]2(C)C(=CC[C@@H]3C2CC[C@]2(C)Nc4[nH]ncc4CC32)C1 (some centres not stated)	37.2 µM		85.2 µM	> 100 µM	> 100 µM	42.5 µM	93.8 µM											
O=C(O)c1ccc(C2C3C=CC(C3)C2[N+](=O)[O-])cc1 (configuration not stated)		> 100 µM	> 100 µM	> 100 µM		> 100 µM	> 100 µM											
COc1ccccc1NC(=O)C1=C(C)NC(C)=C(C(=O)Nc2ccccc2OC)C1c1cccc2c1OCO2	> 100 µM	> 100 µM	> 100 µM	> 100 µM	> 100 µM	> 100 µM	> 100 µM											
Cn1c(=O)oc2cc(C3CCC(=O)N3Cc3ccc(Cl)cc3)ccc21 (configuration not stated)	> 100 µM	> 100 µM	> 100 µM	> 100 µM	> 100 µM	> 100 µM	> 100 µM											
Clc1cc(Cl)cc(Nc2nc3ccccc3nc2-c2cccs2)c1				> 100 µM	60.3 µM		> 100 µM											
CN(CCN(C)C(=O)CCOS(C)(=O)=O)C(=O)CCOS(C)(=O)=O	> 100 µM	> 100 µM	> 100 µM		> 100 µM	> 100 µM	> 100 µM											
CCOC(=O)/C(=C\c1ccc(F)cc1)C(C)=O	> 100 µM	> 100 µM		31.2 µM	50.7 µM	47.1 µM		> 100 µM	56.8 µM	51.4 µM								
COc1ccc(-c2nc3sc4c(c3c(=O)[nH]2)CCCC4)c2ccccc12		> 100 µM				5.52 µM		0.093 µM	17.5 µM	6.08 µM and 3.47 µM	2.23 µM	0.411 µM and 0.0467 µM	0.59 µM	0.755 µM				
O=[N+]([O-])/C=C/c1ccc([N+](=O)[O-])cc1	22.3 µM	14.9 µM		3.69 µM	4.16 µM	4.51 µM		9.87 µM	3.77 µM	4.02 µM	3.65 µM	3.53 µM	1.83 µM	2.08 µM	2.64 µM	1.96 µM	1.76 µM	2.1 µM
CCCCCCN1CCN(Cc2ccc(N(CC)CC)cc2)C(=O)C1=O	79.6 µM	> 100 µM		> 100 µM	> 100 µM	11.3 µM		27.7 µM	48.7 µM	95.6 µM	6.73 µM	4.08 µM	5.22 µM	6.45 µM	3.14 µM	3.38 µM	0.412 µM	10.2 µM
c1cncc(CNc2ncn[nH]2)c1	> 100 µM	> 100 µM		> 100 µM	> 100 µM	> 100 µM		> 100 µM	> 100 µM	> 100 µM								
CC(C)=CC1CC(C)C2(CCC3(C)CC4C(C(=O)CC4(C)O)/C(C=O)=C\CC32)O1 (configuration not stated)	0.147 µM	0.607 µM		0.0989 µM	0.115 µM	0.588 µM		0.421 µM	0.267 µM	0.351 µM								
O=C(/C=C\c1ccc2ccccc2n1)c1cc(Cl)ccc1O	24.6 µM	24.5 µM		17.8 µM	21.4 µM	37.5 µM		62.6 µM	19.4 µM	17 µM	5.25 µM	10.1 µM	4.33 µM	8.32 µM	16.2 µM	5.81 µM	13.4 µM	4.82 µM
N=C(N)c1ccc(-c2ccc(-c3ccc(F)cc3)o2)o1	3.2 µM	4.05 µM		2.78 µM	2.97 µM	2.92 µM		4.82 µM	3.36 µM	7.19 µM	1.62 µM	1.73 µM	1.43 µM	1.6 µM	1.95 µM	1.8 µM	1.56 µM	2.27 µM
CC1CC2(CCC1OCc1ccccc1)OCCO2 (configuration not stated)	> 100 µM	> 100 µM		> 100 µM		> 100 µM	> 100 µM											
NC1=NC(c2ccc(F)cc2)C2=C(N1)c1ccc3ccccc3c1OCC2 (configuration not stated)	> 100 µM	> 100 µM		> 100 µM	> 100 µM	> 100 µM		> 100 µM	> 100 µM	> 100 µM	> 100 µM	16.2 µM	> 100 µM	29.7 µM	11.4 µM	> 100 µM	5.01 µM	33.6 µM
O=C1OCC2=C1C(c1cccc(C(F)(F)F)c1)c1cc3c(cc1N2CCO)CCC3 (configuration not stated)	11.2 µM	8.8 µM		9.01 µM	9.23 µM	2.18 µM		7.72 µM	5.66 µM	5.32 µM	1.05 µM	0.215 µM	0.323 µM	0.441 µM	0.146 µM	0.195 µM	0.156 µM	0.219 µM
Cc1ccc2[nH]c(C(=O)NN3C(=O)C(C)SC34CCCCC4C)c(-c3ccccc3)c2c1 (configuration not stated)	36.1 µM	77.5 µM		32.6 µM	36.6 µM	33.5 µM		43.2 µM	50.7 µM	34.5 µM	15.9 µM	27 µM	16.8 µM	17.3 µM	14.4 µM	21.7 µM	16 µM	18.8 µM
NC(=O)NCCSC1CCCCC1O (configuration not stated)	> 100 µM	> 100 µM		> 100 µM	> 100 µM	> 100 µM		> 100 µM	> 100 µM	> 100 µM								

SMILES	TGI (OVCAR-4 ovarian)	TGI (SNB-19 CNS)	TGI (KM20L2 colon)	TGI (UO-31 renal)	TGI (ACHN renal)	TGI (SK-MEL-5 melanoma)	TGI (DLD-1 colon)	TGI (HS 578T breast)	TGI (DU-145 prostate)	TGI (BT-549 breast)	GI50 (OVCAR-4 ovarian)	GI50 (SNB-19 CNS)	GI50 (UO-31 renal)	GI50 (ACHN renal)	GI50 (HS 578T breast)	GI50 (DU-145 prostate)	GI50 (SK-MEL-5 melanoma)	GI50 (BT-549 breast)
CN1CCC(n2[nH]c(-c3ccccc3)c(Cc3ccccc3)c2=O)CC1	> 100 µM	> 100 µM		> 100 µM	> 100 µM	> 100 µM		> 100 µM	> 100 µM	> 100 µM								
COC(=O)[C@@H]1CCCN1C(=O)[C@H]1CCCN1C(=O)[C@@H](Cc1c[nH]c2ccccc12)NC(=S)Nc1cc(C(F)(F)F)cc(C(F)(F)F)c1	7.55 µM	14.4 µM		11.6 µM	11 µM	7.11 µM		13.4 µM	4.63 µM	11.3 µM	2.29 µM	3.78 µM	3.23 µM	2.97 µM	2.94 µM	2.24 µM	2.45 µM	3.52 µM
COc1cc2c3c(n(C)c(=O)c2cc1OC)-c1cc2c(cc1/C3=C/[C@H](N)CCCCN)OCO2	7.92 µM	20.1 µM		23 µM	3.16 µM	7.64 µM		17.4 µM	50 µM	2.57 µM	2.27 µM	0.829 µM	3.14 µM	0.637 µM	2.52 µM	1.07 µM	1.49 µM	
Cc1ccc(F)cc1NC(=O)c1cc(Cl)ccc1Nc1ccccc1	> 100 µM	> 100 µM		> 100 µM	> 100 µM	> 100 µM		> 100 µM	> 100 µM	> 100 µM	15.9 µM	> 100 µM	> 100 µM	> 100 µM	36.1 µM	> 100 µM	> 100 µM	> 100 µM
Cc1ccccc1C(C(=O)NC1CCCCC1)N(C(=O)Cn1ccnc1C)c1cccc(F)c1 (configuration not stated)	> 100 µM	> 100 µM		> 100 µM	> 100 µM	> 100 µM		> 100 µM	> 100 µM	> 100 µM	> 76.7 µM	57 µM	> 51.6 µM	> 58.7 µM	28.2 µM	> 76.6 µM	> 100 µM	> 52.6 µM
CCN1CCC(CC(=O)Nc2n[nH]c3nc(-c4cccs4)c(Br)cc23)CC1	> 25 µM	> 25 µM		> 25 µM	> 25 µM	> 14.6 µM		> 25 µM	> 25 µM	> 25 µM	11.5 µM	17.4 µM	9.05 µM	7.96 µM	12.3 µM	8.5 µM	6.37 µM	> 23 µM
O=[N+]([O-])c1ccc(N=Nc2c(O)[nH]c3ccccc23)cc1	57.6 µM	> 100 µM		39.3 µM	26.3 µM	> 77.3 µM		51.6 µM	36.4 µM	71.3 µM								
CCC(=O)c1ccc2c(c1)N(CCCN1CCN(CCO)CC1)c1ccccc1S2	25.6 µM	36.1 µM		21.6 µM	32 µM	21.1 µM		36.5 µM	28.9 µM	28.9 µM	12.9 µM	18.5 µM	7.82 µM	16.2 µM	13.3 µM	15.4 µM	8.65 µM	14.9 µM
CC[C@@]1(O)C(=O)OCc2c1cc1n(c2=O)Cc2cc3c(NC(=O)CN)cccc3nc2-1	> 100 µM	> 100 µM		3.55 µM	1.02 µM	2.32 µM		> 100 µM	1.98 µM	> 100 µM								
CC(=O)Nc1ccc(-c2nnc(SCC(=O)Nc3ccccc3C)o2)cc1	> 100 µM		> 100 µM	> 100 µM	> 100 µM	> 100 µM	> 100 µM											
COc1ccc2c(c1)[C@@]1(C)CCC3c4ccc(O)cc4CCC3C1C2 (some centres not stated)	28.4 µM	30.7 µM		30.9 µM	29.8 µM	33.1 µM		39.3 µM	39.7 µM	40.7 µM	13.7 µM	16.2 µM	12.8 µM	15.9 µM	19.4 µM	17.6 µM	17 µM	22.4 µM
COc1cc2ncn(-c3cc(OCc4ccccc4S(C)(=O)=O)c(C#N)s3)c2cc1OC	> 25 µM	> 25 µM		> 25 µM	> 25 µM	> 25 µM		> 25 µM	> 25 µM	> 25 µM	> 25 µM	15.1 µM	> 25 µM	> 25 µM	> 17.9 µM	> 25 µM	> 25 µM	> 25 µM
CO/C(=N\N=C\c1cccc(C(F)(F)F)c1)c1ccncc1	> 100 µM	54.6 µM		40.8 µM	> 100 µM	32.4 µM		38.7 µM	> 100 µM	68 µM		14.2 µM	6.09 µM	27.3 µM		33.6 µM		8.78 µM
COc1ccc2c(c1)CCCC1C3=NCCC3(C)CSC21 (configuration not stated)	> 100 µM	> 100 µM	72.7 µM			> 100 µM												
Cc1ccc2nc(N/N=C/c3cccc(C)n3)cc(C)c2c1	41.5 µM	44.8 µM		41.3 µM	31.4 µM	36.4 µM		50.9 µM	36.3 µM	33.3 µM								
CN(C)S(=O)(=O)c1ccc(Nc2ccc(O)c3c2C(=O)c2c([N+](=O)[O-])ccc(O)c2C3=O)cc1	> 100 µM	> 100 µM		> 100 µM	> 100 µM	> 100 µM		> 100 µM	> 100 µM	> 100 µM								
COc1ccc2c(c1)C(=O)c1c-2n(CCCN2CCOCC2)c(=O)c2cc([N+](=O)[O-])ccc12	6.55 µM	> 36.5 µM		0.0572 µM	< 0.0108 µM	< 0.01 µM		22.3 µM	0.0106 µM	0.448 µM	< 0.0264 µM	< 0.01 µM	< 0.01 µM	< 0.01 µM	0.719 µM	< 0.01 µM	< 0.01 µM	< 0.01 µM
O=C1CC/C(=C\COc2ccc3ccc(=O)oc3c2)O1	23.7 µM	36.8 µM		21.4 µM	2.02 µM	32.7 µM		81.7 µM	14.1 µM	26.4 µM	4.78 µM	13.2 µM	6.41 µM	0.386 µM	11.7 µM	1.89 µM	14.5 µM	10.2 µM
COc1ccc(-n2c(C)nc3c(c(C)nn3-c3ccccc3)c2=O)cc1	> 100 µM	> 100 µM		> 43.4 µM	> 100 µM	4.6 µM		> 100 µM	> 100 µM	33.8 µM	1.11 µM	0.064 µM	0.261 µM	0.0645 µM	0.0528 µM	0.29 µM	0.0615 µM	0.123 µM
